Values quoted from earlier work in patent publication US9625464B2, “Fluorescent probe for plasma cell identification and isolation, and plasma cell identification or isolation method using the probe” (NATIONAL UNIVERSITY CORPORATION UNIVERSITY OF TOYAMA, priority 2010, dated 2017).
pKd: −log10 of the molar value.

Target: ATP-sensitive K+ channel
Settings: read-out: dissociation constant to ATP-sensitive K+ channel

pKd: 8.44 to 10.00
Compound: COc1ccc(Cl)cc1C(=O)NCCc1ccc(S(=O)(=O)NC(=O)NC2CCCCC2)cc1 [glibenclamide]
